Test results published in US20260072027A1, “Peptides And Method” (Queen Mary University of London, priority 2022, published 2026).
“Also recorded” adds a separate entry of the source. Where no end group is shown, it is not given here.

What was measured:
[1] = test system: CD4+ T-cells (PBMCs); test: In vitro peptide stimulation and T-cell proliferation assay, CD4+; type: cell-based, human; details: Type 1 diabetes (N = 18)
Outline: (§1)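 CellTrace Violet-labelled fresh PBMCs from type 1 diabetic and healthy donors cultured 7 days in 5% autologous plasma with or without 20 μg/ml insulin peptides. Proliferation measured by flow cytometry as dye dilution within the CD4+ or CD8+ subset. Stimulation index = % proliferation stimulated/% unstimulated.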

[2] = test system: autoantibodies to oxPTM-INS; test: Competitive displacement ELISA, plate coated with oxidised insulin; type: binding, human
Experimental: A competitive displacement assay was performed to map the exact epitope, namely the exact amino acid sequence binding specificities and to test the binding to native peptides versus oxidised insulin peptides. The binding to the peptide was done by direct ELISA on the native or modified peptides or by competition ELISA. Initially native synthetic peptide was oxidised by exposing to 0.05 mM CuCl2; 90 mM H2O2; 10 mM NaOCl. Native and modified peptides were fractionated by AKTA to evaluated changes in molecular profile. AKTA fractions were then tested by ELISA for reactivity (FIGS. 2 and 3). We next perform competition ELISA with the native peptides and peptides exposed to 0.05 mM CuCl2; 90 mM H2O2; 10 mM NaOCl. Serum samples were pre-incubated with either native insulin peptides or oxidised insulin peptides. Finally, based on the amino acid sequence of the identified peptides we predicted the amino acids that would be oxidised by ^●OH and HOCl and designed synthetic peptides that contain the oxidised amino acids in the synthesis. Synthetic peptides were produced by standard commercially available methods, specifically by Peptide Protein Research Ltd. Briefly, peptide synthesis was performed by automated solid phase peptide synthesis (SPPS), which was followed by purification. Each individual amino acid was added to the growing chain according to the sequence. Where specified, dihydroxyphenylalanine was added to replace Tyr or cysteate were added to replace Cys. Similarly, these peptides were tested by competition ELISA. The table below describe the different competition ELISA performed:
Serum samples from children with type 1 diabetes were pre-incubated with the synthetic peptides before they were added to the native insulin or oxidised that were previously coated on the ELISA plate. If the antibodies in the serum sample bind to the peptide they will no longer bind to the insulin or oxidised insulin on the plate-competition ELISA. 1:200 dilutions of serum samples from T1D serum samples were pre-incubated for 2 hr at room temperature with the various peptides as shown in the table above. After incubation, serum/peptide mix was added to the ELISA plate previously coated overnight with either native insulin or oxidised insulin for an additional 2 hr incubation. Plates were then washed in a plate washer three times with PBS 0.05% tween. After washing, 100 ul of anti-human IgG diluted 1:1000 in 1% milk-PBS 0.05% tween were added for additional 1 hour and 30 min incubation. After washing, ELISA was developed by adding 100 ul of TMB (10 mg/ml in DMSO) in 10 ml of 0.1 M sodium acetate plus 2 ul of H2O2. Reaction was stopped by adding 0.5 M H2SO4 (usually 20 min for insulin ELISA).
To assess the binding specificity of serum samples to identified peptides, a competitive ELISA was performed. The ELISA was carried out following the method described above, except that the serum samples were pre-incubated for 2 h with and without 10 μg/ml peptides as competitors, before adding the serum samples to the insulin coated ELISA plate.

[3] = test system: CD8+ T-cells (PBMCs); test: In vitro peptide stimulation and T-cell proliferation assay, CD8+; type: cell-based, human
Outline: as §1

[4] = test system: CD4+ and CD8+ T-cells and IgG autoantibodies; test: Overlap of CD4+, CD8+ and IgG antibody responses (Venn analysis); type: cell-based, human; details: type 1 diabetes
Description: FIG. 13. Venn diagrams of CD4^+, CD8^+ and antibody response to oxPTM-INSPs. Panels a, b, and c show the overlap between IgG autoantibody and T-cell (CD4^+ and CD8^+) responses specific to oxPTM-INSP-3 (a), Nt-INSP-4 (b) and oxPTM-INSP-6 (c). Panels d, e, and f display the overlap between T-cell responses to the three insulin peptides and IgG to oxPTM-INS modified by hydroxyl radical (^●OH-INS). […] There is concordance between reactivity to oxPTM-INS and CD4^+ and CD8^+ reactivity for all three tested peptides (7/17, 8/18 and 8/18 for oxPTM-INSP-3, Nt-INSP-4 and oxPTM-INSP-6, respectively). The stimulatory index >1 was used for definition of positive T-cell response.
Correlation between T-cell stimulation and antibody response. Subjects evaluated for T-cell stimulation were also tested for antibody reactivity to either oxPTM-INSPs or oxidised intact insulin (oxPTM-INS) to assess correlations between humoral and cellular responses (FIG. 11-e-f). In study cohort 2, antibody reactivity to oxPTM-INSP-6 was the highest as observed in the study cohort 1, with 11/18 (61.1%) binding to at least one oxPTM-INSP-6 derivatives (p<0.001 oxPTM-INSP-6 vs. Nt-INSP-6). Detailed analysis of autoantibody response in this cohort is described in the ESM (ESM results Antibody binding to oxPTM-INSPs in Study cohort 2).
We then analysed the extent of correlation between CD4^+, CD8^+ and IgG antibody responses. […] The CD4^+ T cell response to Nt-INSP-4 frequently overlapped with CD8^+ (13/18 [72.2%]), and to a lesser extent to antibodies (7/18 [38.8%]). […] CD4^+ response to oxPTM-INSP-6 was linked to both CD8^+ and/or antibodies: […] patients had concordant CD4^+ and CD8^+ responses, while 9/18 (50%) patients had concordant CD4^+ and antibody responses. […] CD4^+ T-cell stimulation to Nt-INSP-4, oxPTM-INSP-6 and oxPTM-INSP-3 was associated with antibody reactivity to oxPTM-INS in 8/18 (44.4%), 8/18 (44.4%) and 7/18 (38.9%) type 1 diabetes patients.

[5] = target: Serum IgG autoantibodies of subjects with type 1 diabetes (human); test: competitive ELISA, T1D serum pre-incubated with peptide, plate coated with oxidised insulin (FIG. 2A)
[6] = target: Serum IgG autoantibodies of subjects with type 1 diabetes (human); test: competitive ELISA, T1D serum pre-incubated with peptide, plate coated with oxidised insulin (Example 3)
[7] = target: Serum IgG autoantibodies of subjects with type 1 diabetes (human); test: competitive ELISA, T1D serum pre-incubated with peptide, plate coated with oxidised insulin (FIG. 2B)

## oxPTM-INSP-6: oxidised forms of insulin peptide 6 (B:21-30), in house oxidised or in silico derivatives (ERGFFYTPKT; not fully specified (N-terminus); also: oxidised forms, in house oxidised or in silico derivatives, modified residues not defined)
[1]
  CD4+ T-cell response, subjects with SI > 3 (%): 66.7%
[2]; sera pre-incubated with peptide competitor
  inhibition of type 1 diabetes serum binding to oxPTM-INS (in words): strongly inhibited binding to oxPTM-INS; also recorded: able to inhibit the binding
[2]; type 1 diabetes sera pre-incubated with peptide
  reduced binding to oxidised whole insulin: 35-75%
[3]; Controls (N = 11)
  CD8+ T-cell response, subjects with SI > 1 (%): 27.3%
[3]; Type 1 diabetes (N = 18)
  CD8+ T-cell response, subjects with SI > 1 (%): 72.2%
[4]; Study cohort 2
  concordance between reactivity to oxPTM-INS and CD4+ and CD8+ reactivity (patients/patients): 8/18
  patients with CD4+ T-cell stimulation associated with antibody reactivity to oxPTM-INS: 44.4%
  patients with CD4+, CD8+ T-cells to the peptide and autoantibodies to oxPTM-INS simultaneously: 33.3%
  patients with concordant CD4+ and antibody responses to the peptide: 50%
  patients with concordant CD4+, CD8+ and IgG antibody response to the peptide: 44.4%
[4]; Study cohort 2, SI >1
  patients with overlapping (concordant) CD4+ and CD8+ responses to the peptide: 72.2%

B1: oxPTM-INSP-3, peptide 3 oxidised in house (oxidant not specified at the place) (peptide)
peptide: SLYQLENYCN
modifications: not fully specified (N-terminus); also: oxidised in house (CuCl2, H2O2, NaOCl), modified residues not defined
[5]
  % reduction of serum binding to oxidised whole insulin: 35 to 80%
[6]
  % reduction of serum binding to oxidised whole insulin: 40 to 80%

B2: oxPTM-INSP-6, peptide 6 oxidised in house (oxidant not specified at the place) (peptide)
peptide: ERGFFYTPKT
modifications: not fully specified (N-terminus); also: oxidised in house (CuCl2, H2O2, NaOCl), modified residues not defined
[7]
  % reduction of serum binding to oxidised whole insulin: 35 to 75%
[6]
  % reduction of serum binding to oxidised whole insulin: 35 to 70%
